In ChEMBL document CHEMBL3244053, “Structural modification study of bis(substituted aminoalkylamino)anthraquinones. An evaluation of the relationship of the [2-[(2-hydroxyethyl)amino]ethyl]amino side chain with antineoplastic activity” (1979):
Calls of active or inactive are those of the source. No cut-off for these calls is given here.

Assays:
[1] = test system: B16; experiment: Antineoplastic activity against mouse B16 cells allografted in BDF1 mouse assessed as survival at 30 mg/kg qd for 9 days; format: functional, organism-based; set-up: dose 30 mg/kg
[2] = test system: B16; experiment: Antineoplastic activity against mouse B16 cells allografted in BDF1 mouse at 30 mg/kg qd for 9 days relative to control; format: functional
[3] = test system: B16; experiment: Antineoplastic activity against mouse B16 cells allografted in BDF1 mouse assessed as survival at 15 mg/kg qd for 9 days; format: functional, organism-based; set-up: dose 15 mg/kg
[4] = test system: B16; experiment: Antineoplastic activity against mouse B16 cells allografted in BDF1 mouse at 15 mg/kg qd for 9 days relative to control; format: functional
[5] = test system: B16; experiment: Antineoplastic activity against mouse B16 cells allografted in BDF1 mouse assessed as survival at 7.5 mg/kg qd for 9 days; format: functional, organism-based; set-up: dose 7.5 mg/kg
[6] = test system: B16; experiment: Antineoplastic activity against mouse B16 cells allografted in BDF1 mouse at 7.5 mg/kg qd for 9 days relative to control; format: functional
[7] = test system: B16; experiment: Antineoplastic activity against mouse B16 cells allografted in BDF1 mouse assessed as survival at 3.75 mg/kg qd for 9 days; format: functional, organism-based; set-up: dose 3.75 mg/kg
[8] = test system: B16; experiment: Antineoplastic activity against mouse B16 cells allografted in BDF1 mouse at 3.75 mg/kg qd for 9 days relative to control; format: functional
[9] = test system: B16; experiment: Antineoplastic activity against mouse B16 cells allografted in BDF1 mouse assessed as survival at 1.88 mg/kg qd for 9 days; format: functional, organism-based; set-up: dose 1.88 mg/kg
[10] = test system: B16; experiment: Antineoplastic activity against mouse B16 cells allografted in BDF1 mouse at 1.88 mg/kg qd for 9 days relative to control; format: functional
[11] = test system: Colon 26; experiment: Antineoplastic activity against mouse Colon 26 cells allografted in CDF1 mouse assessed as survival at 15 mg/kg qd for 9 days; format: functional, organism-based; set-up: dose 15 mg/kg
[12] = test system: Colon 26; experiment: Antineoplastic activity against mouse Colon 26 cells allografted in CDF1 mouse at 15 mg/kg qd for 9 days relative to control; format: functional
[13] = test system: Colon 26; experiment: Antineoplastic activity against mouse Colon 26 cells allografted in CDF1 mouse assessed as survival at 7.5 mg/kg qd for 9 days; format: functional, organism-based; set-up: dose 7.5 mg/kg
[14] = test system: Colon 26; experiment: Antineoplastic activity against mouse Colon 26 cells allografted in CDF1 mouse at 7.5 mg/kg qd for 9 days relative to control; format: functional
[15] = test system: Colon 26; experiment: Antineoplastic activity against mouse Colon 26 cells allografted in CDF1 mouse assessed as survival at 3.75 mg/kg qd for 9 days; format: functional, organism-based; set-up: dose 3.75 mg/kg
[16] = test system: Colon 26; experiment: Antineoplastic activity against mouse Colon 26 cells allografted in CDF1 mouse at 3.75 mg/kg qd for 9 days relative to control; format: functional
[17] = test system: Colon 26; experiment: Antineoplastic activity against mouse Colon 26 cells allografted in CDF1 mouse assessed as survival at 1.88 mg/kg qd for 9 days; format: functional, organism-based; set-up: dose 1.88 mg/kg
[18] = test system: Colon 26; experiment: Antineoplastic activity against mouse Colon 26 cells allografted in CDF1 mouse at 1.88 mg/kg qd for 9 days relative to control; format: functional
[19] = test system: L1210; experiment: Antineoplastic activity against mouse L1210 cells allografted in CDF1 mouse assessed as survival at 15 mg/kg qd for 9 days; format: functional, organism-based; set-up: dose 15 mg/kg
[20] = test system: L1210; experiment: Antineoplastic activity against mouse L1210 cells allografted in CDF1 mouse at 15 mg/kg qd for 9 days relative to control; format: functional
[21] = test system: L1210; experiment: Antineoplastic activity against mouse L1210 cells allografted in CDF1 mouse assessed as survival at 7.5 mg/kg qd for 9 days; format: functional, organism-based; set-up: dose 7.5 mg/kg
[22] = test system: L1210; experiment: Antineoplastic activity against mouse L1210 cells allografted in CDF1 mouse at 7.5 mg/kg qd for 9 days relative to control; format: functional
[23] = test system: L1210; experiment: Antineoplastic activity against mouse L1210 cells allografted in CDF1 mouse assessed as survival at 3.75 mg/kg qd for 9 days; format: functional, organism-based; set-up: dose 3.75 mg/kg
[24] = test system: L1210; experiment: Antineoplastic activity against mouse L1210 cells allografted in CDF1 mouse at 3.75 mg/kg qd for 9 days relative to control; format: functional
[25] = test system: L1210; experiment: Antineoplastic activity against mouse L1210 cells allografted in CDF1 mouse assessed as survival at 1.88 mg/kg qd for 9 days; format: functional, organism-based; set-up: dose 1.88 mg/kg
[26] = test system: L1210; experiment: Antineoplastic activity against mouse L1210 cells allografted in CDF1 mouse at 1.88 mg/kg qd for 9 days relative to control; format: functional
[27] = test system: P388; experiment: Antineoplastic activity against mouse P388 cells allografted in CDF1 mouse assessed as survival at 20 mg/kg qd for 9 days; format: functional, organism-based; set-up: dose 20 mg/kg
[28] = test system: P388; experiment: Antineoplastic activity against mouse P388 cells allografted in CDF1 mouse at 20 mg/kg qd for 9 days relative to control; format: functional
[29] = test system: P388; experiment: Antineoplastic activity against mouse P388 cells allografted in CDF1 mouse assessed as survival at 10 mg/kg qd for 9 days; format: functional, organism-based; set-up: dose 10 mg/kg
[30] = test system: P388; experiment: Antineoplastic activity against mouse P388 cells allografted in CDF1 mouse at 10 mg/kg qd for 9 days relative to control; format: functional
[31] = test system: P388; experiment: Antineoplastic activity against mouse P388 cells allografted in CDF1 mouse assessed as survival at 5 mg/kg qd for 9 days; format: functional, organism-based; set-up: dose 5 mg/kg
[32] = test system: P388; experiment: Antineoplastic activity against mouse P388 cells allografted in CDF1 mouse at 5 mg/kg qd for 9 days relative to control; format: functional
[33] = test system: P388; experiment: Antineoplastic activity against mouse P388 cells allografted in CDF1 mouse assessed as survival at 2.5 mg/kg qd for 9 days; format: functional, organism-based; set-up: dose 2.5 mg/kg
[34] = test system: P388; experiment: Antineoplastic activity against mouse P388 cells allografted in CDF1 mouse at 2.5 mg/kg qd for 9 days relative to control; format: functional

Question: Which results are given for O=C1c2ccccc2C(=O)c2c(NCCNCCO)ccc(O)c21?
Answer: Activity [1]: Active; T/C [2]: 326%; Activity [3]: Active; T/C [4]: 271%; Activity [5]: Active; T/C [6]: 254%; Activity [7]: Active; T/C [8]: 201%; Activity [9]: Active; T/C [10]: 157%; Activity [11]: Active; T/C [12]: 182%; Activity [13]: Active; T/C [14]: 196%; Activity [15]: Active; T/C [16]: 177%; Activity [17]: Active; T/C [18]: 162%; Activity [19]: Active; T/C [20]: 151%; Activity [21]: Active; T/C [22]: 193%; Activity [23]: Active; T/C [24]: 147%; Activity [25]: Active; T/C [26]: 136%; Activity [27]: Active; T/C [28]: 178%; Activity [29]: Active; T/C [30]: 342%; Activity [31]: Active; T/C [32]: 226%; Activity [33]: Active; T/C [34]: 216%
